Assay results from PubChem BioAssay AID248 (DTP/NCI, 2004).
Several values for one entry are separate records, joined by “and”; a condition that tells them apart may be missing. Identical values can stand only once. Toxic doses and inconclusive results are not listed. Cut-off read from the data, not from the text of the source: active = T/C of 150% or more; inactive = T/C below 125%.

Test system: L1210 leukemia ip in BDF1 mice, survival T/C
Assay: NCI In Vivo Anticancer Drug Screen. Data for tumor model L1210 Leukemia (intraperitoneal) in B6D2F1 (BDF1) mice
Conditions: endpoint: mean survival time, higher = longer survival
Method in brief: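 Value reflects the ratio of survival in compound-treated mice to survival in vehicle-treated controls, with both groups carrying the same transplanted tumor.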

[1] = dose: 100.0 mg/kg/injection, schedule: Q04DX003 (ip), vehicle: Klucel (hydroxypropylcellulose) (HPC)
[2] = dose: 200.0 mg/kg/injection, schedule: Q04DX003 (ip), vehicle: Klucel (hydroxypropylcellulose) (HPC)
[3] = dose: 400.0 mg/kg/injection, schedule: Q04DX003 (ip), vehicle: Klucel (hydroxypropylcellulose) (HPC)
[4] = dose: 100.0 mg/kg/injection, schedule: Q01DX009 (ip), vehicle: Klucel (hydroxypropylcellulose) (HPC)
[5] = dose: 200.0 mg/kg/injection, schedule: Q01DX009 (ip), vehicle: Klucel (hydroxypropylcellulose) (HPC)
[6] = dose: 400.0 mg/kg/injection, schedule: Q01DX009 (ip), vehicle: Klucel (hydroxypropylcellulose) (HPC)
[7] = dose: 100.0 mg/kg/injection, schedule: Q01DX001 (ip), vehicle: carboxymethylcellulose (CMC)
[8] = dose: 200.0 mg/kg/injection, schedule: Q01DX001 (ip), vehicle: carboxymethylcellulose (CMC)
[9] = dose: 400.0 mg/kg/injection, schedule: Q01DX001 (ip), vehicle: carboxymethylcellulose (CMC)
[10] = dose: 50.0 mg/kg/injection, schedule: Q01DX001 (ip), vehicle: saline
[11] = dose: 100.0 mg/kg/injection, schedule: Q01DX001 (ip), vehicle: saline
[12] = dose: 200.0 mg/kg/injection, schedule: Q01DX001 (ip), vehicle: saline
[13] = dose: 400.0 mg/kg/injection, schedule: Q01DX001 (ip), vehicle: saline
[14] = dose: 100.0 mg/kg/injection, schedule: Q04DX003 (ip), vehicle: saline with Tween-80
[15] = dose: 100.0 mg/kg/injection, schedule: Q04DX003 (ip), vehicle: saline
[16] = dose: 200.0 mg/kg/injection, schedule: Q04DX003 (ip), vehicle: saline
[17] = dose: 400.0 mg/kg/injection, schedule: Q04DX003 (ip), vehicle: saline

Measured: T/C

C=Cc1c2[n-]c(c1C)/C=c1\[n-]/c(c(C)c1C=C)=C\c1[n-]c(c(CCC(=O)O)c1C)/C=c1\[n-]/c(c(C)c1CCC(=O)O)=C\2.[Co]
inactive: dose: 100.0 mg/kg/injection, schedule: Q01DX009 (ip), vehicle: dextrose 88 % of control | dose: 100.0 mg/kg/injection, schedule: Q04DX003 (ip), vehicle: dextrose 94 % of control | dose: 200.0 mg/kg/injection, schedule: Q01DX009 (ip), vehicle: dextrose 94 % of control | dose: 200.0 mg/kg/injection, schedule: Q04DX003 (ip), vehicle: dextrose 104 % of control | dose: 400.0 mg/kg/injection, schedule: Q04DX003 (ip), vehicle: dextrose 94 % of control | dose: 1:1.0 dilution, schedule: Q04DX002 (ip), vehicle: saline 104 % of control | dose: 1:2.0 dilution, schedule: Q04DX002 (ip), vehicle: saline 104 % of control | dose: 1:4.0 dilution, schedule: Q04DX002 (ip), vehicle: saline 86 % of control

CC(=O)OC1C=CN(C(C)=O)C(SC23CC4CC(CC(C4)C2)C3)C1OC(C)=O (stereo not drawn)
inactive: [1] 92 % of control | [2] 100 % of control | [3] 92 % of control

CCOC(=O)CCSCCC(=O)OCC
inactive: dose: 100.0 mg/kg/injection, schedule: Q01DX001 (ip), vehicle: saline with Tween-80 109 % of control | dose: 200.0 mg/kg/injection, schedule: Q01DX001 (ip), vehicle: saline with Tween-80 101 % of control | dose: 400.0 mg/kg/injection, schedule: Q01DX001 (ip), vehicle: saline with Tween-80 101 % of control

CC(=O)C1CCC2(C)CCC(=O)C(C)C2C1 (stereo not drawn)
inactive: dose: 50.0 mg/kg/injection, schedule: Q04DX003 (ip), vehicle: Klucel (hydroxypropylcellulose) (HPC) 107 % of control | dose: 100.0 mg/kg/injection, schedule: Q01DX001 (ip), vehicle: Klucel (hydroxypropylcellulose) (HPC) 104 % of control | [4] 100 % of control | [1] 104 % of control | dose: 200.0 mg/kg/injection, schedule: Q01DX001 (ip), vehicle: Klucel (hydroxypropylcellulose) (HPC) 106 % of control | [5] 100 % of control | [2] 101 % of control | dose: 400.0 mg/kg/injection, schedule: Q01DX001 (ip), vehicle: Klucel (hydroxypropylcellulose) (HPC) 101 % of control | [6] 98 % of control | [3] 101 % of control

COc1ccccc1/C=C(\C(=O)O)c1cccc2ccccc12
inactive: [1] 93 % of control | [2] 100 % of control | [3] 98 % of control

C[CH2][Pb]([CH2]C)([CH2]C)[S]C(C)=O
inactive: dose: 1.5 mg/kg/injection, schedule: Q01DX009 (ip), vehicle: Klucel (hydroxypropylcellulose) (HPC) 89 % of control | dose: 3.0 mg/kg/injection, schedule: Q01DX009 (ip), vehicle: Klucel (hydroxypropylcellulose) (HPC) 101 % of control | dose: 12.5 mg/kg/injection, schedule: Q04DX002 (ip), vehicle: Klucel (hydroxypropylcellulose) (HPC) 102 % of control

O=C(c1ccccc1)C(Nc1ccc(Br)cc1)Nc1ccc(Br)cc1
inactive: [7] 96 % of control | [8] 102 % of control | [9] 96 % of control

CCOC(=O)C1CCc2c(ccc3ccccc23)N1C(C)=O (stereo not drawn)
inactive: [4] 94 % of control | [5] 88 % of control | [6] 91 % of control

COc1ccc(C)cc1NC(=O)Nc1cccc(F)c1
inactive: [4] 106 % of control | [5] 111 % of control | [6] 106 % of control

CC(CO)(CO)N=Cc1cc(Cl)cc(Cl)c1O
inactive: dose: 50.0 mg/kg/injection, schedule: Q01DX001 (ip), vehicle: carboxymethylcellulose (CMC) 107 % of control | [7] 97 % of control | [8] 107 % of control | [9] 97 % of control

C=CCOC(=O)C1OC12CCCCC2 (stereo not drawn)
inactive: [10] 104 % of control | [11] 95 % of control | [12] 101 % of control | [13] 98 % of control

CC1(C)N=C(N)N=C(N)N1c1cccc(C(=O)O)c1
inactive: dose: 25.0 mg/kg/injection, schedule: Q01DX001 (ip), vehicle: saline 100 % of control | [10] 102 % of control | [11] 105 % of control

Clc1ccc2nc(CI)c(CI)nc2c1
inactive: dose: 6.25 mg/kg/injection, schedule: Q01DX009 (ip), vehicle: acetone 102 % of control | dose: 12.5 mg/kg/injection, schedule: Q01DX009 (ip), vehicle: acetone 102 % of control | dose: 12.5 mg/kg/injection, schedule: Q04DX003 (ip), vehicle: acetone 104 % of control | dose: 25.0 mg/kg/injection, schedule: Q04DX003 (ip), vehicle: acetone 96 % of control

CCCCNC(=O)C1CC2c3cccc4c3c(cn4C)CC2N(C)C1 (stereo not drawn)
inactive: dose: 3.12 mg/kg/injection, schedule: Q01DX009 (ip), vehicle: saline 100 % of control | dose: 6.25 mg/kg/injection, schedule: Q01DX009 (ip), vehicle: saline 92 % of control | dose: 12.5 mg/kg/injection, schedule: Q01DX009 (ip), vehicle: saline 100 % of control | dose: 25.0 mg/kg/injection, schedule: Q01DX009 (ip), vehicle: saline 94 % of control | dose: 50.0 mg/kg/injection, schedule: Q01DX009 (ip), vehicle: saline 101 % of control

c1ccc2c(c1)OCC(CNC1CCCCC1)O2 (stereo not drawn)
inactive: dose: 12.5 mg/kg/injection, schedule: Q04DX003 (ip), vehicle: saline with Tween-80 100 % of control | dose: 25.0 mg/kg/injection, schedule: Q04DX003 (ip), vehicle: saline with Tween-80 94 % of control and 100 % of control | dose: 50.0 mg/kg/injection, schedule: Q04DX003 (ip), vehicle: saline with Tween-80 94 % of control | [14] 98 % of control and 100 % of control

O=S(=O)(c1ccccc1)C1CC1c1ccccc1 (stereo not drawn)
inactive: dose: 50.0 mg/kg/injection, schedule: Q01DX009 (ip), vehicle: acetone 95 % of control | [11] 94 % of control | dose: 100.0 mg/kg/injection, schedule: Q01DX009 (ip), vehicle: acetone 93 % of control | [15] 98 % of control | [12] 102 % of control | dose: 200.0 mg/kg/injection, schedule: Q01DX009 (ip), vehicle: acetone 97 % of control | [16] 96 % of control | [13] 102 % of control | [17] 98 % of control

O=C1CCCCCCCCCCCCCCO1
inactive: dose: 100.0 mg/kg/injection, schedule: Q04DX002 (ip), vehicle: Klucel (hydroxypropylcellulose) (HPC) 96 % of control | dose: 200.0 mg/kg/injection, schedule: Q04DX002 (ip), vehicle: Klucel (hydroxypropylcellulose) (HPC) 90 % of control | dose: 400.0 mg/kg/injection, schedule: Q04DX002 (ip), vehicle: Klucel (hydroxypropylcellulose) (HPC) 93 % of control

O=C(Nc1cccc(F)c1)OCc1ccco1
inactive: dose: 100.0 mg/kg/injection, schedule: Q01DX009 (sc), vehicle: olive oil, sesame oil, peanut oil 95 % of control | dose: 200.0 mg/kg/injection, schedule: Q01DX009 (sc), vehicle: olive oil, sesame oil, peanut oil 96 % of control | dose: 400.0 mg/kg/injection, schedule: Q01DX009 (sc), vehicle: olive oil, sesame oil, peanut oil 95 % of control

O=C(COc1ccc(Cl)c(Cl)c1)Nc1ccc[n+](Cc2ccc(S(=O)(=O)F)c(Cl)c2)c1
inactive: [1] 98 % of control | [2] 93 % of control | [3] 97 % of control

N#Cc1cccc[n+]1Cc1ccc([N+](=O)[O-])cc1
inactive: [14] 97 % of control

N#CCCCc1ccc(C(=O)O)cc1
inactive: [7] 95 % of control | [8] 100 % of control | [9] 97 % of control

O=C(CCCC(=O)N/N=C/c1cc(Cl)ccc1O)N/N=C\c1cc(Cl)ccc1O
inactive: [10] 98 % of control | [11] 93 % of control | [12] 96 % of control | [13] 98 % of control

CCCCNC(=O)C1C2CC3OC(=O)C1C3C2 (stereo not drawn)
inactive: dose: 12.5 mg/kg/injection, schedule: Q04DX003 (ip), vehicle: saline 89 % of control | dose: 25.0 mg/kg/injection, schedule: Q04DX003 (ip), vehicle: saline 95 % of control | dose: 50.0 mg/kg/injection, schedule: Q04DX003 (ip), vehicle: saline 100 % of control | [15] 95 % of control | [16] 98 % of control | [17] 101 % of control

CN(Cc1cnc2nc(N)nc(N)c2n1)c1ccccc1
inactive: dose: 20.0 mg/kg/injection, schedule: Q01DX009 (ip), vehicle: saline with Tween-80 97 % of control | dose: 40.0 mg/kg/injection, schedule: Q01DX009 (ip), vehicle: saline with Tween-80 101 % of control | dose: 80.0 mg/kg/injection, schedule: Q01DX009 (ip), vehicle: saline with Tween-80 98 % of control
